From PMC11065314, “Identification of compounds that cause axonal dieback without cytotoxicity in dorsal root ganglia explants and intervertebral disc cells with potential to treat pain via denervation” (PLOS ONE, 2024)
Where “and” joins values, the source holds several entries; their conditions need not be identical. Equal values may be shown once. Where a name gives a salt, the structure may show the parent alone.

Key:
[1] = Quantification of viable NP cells (LIVE/DEAD staining); format: cell-based, human; conditions: both sexes, human, human nucleus pulposus (NP) cells; 10 to 500 nM, day 3 post-treat; read-out: Percentage of viable cells
Experimental: (§1) Nucleus pulposus (NP) cells are native matrix-producing cells at the core of intervertebral discs. To repurpose axonal dieback compounds to denervate aberrant nerve fibers in discs related to chronic LBP, the cytocompatibility of these compounds with NP cells must be evaluated. Human NP cells (Sciencell, 4800) from donor 1 (Lot #5954) and donor 2 (Lot# 21579) were cultured according to previously established protocol in our lab adapted from manufacturer’s instructions. Briefly, passage three cells from both donors were expanded in Poly-L-lysine (PLL) (Sciencell, 413) coated T75 flasks. Cells were then lifted and reseeded at 5,000 cells/cm^2 onto two PLL-coated 48-well plates (Greiner Bio-One, 677180) and allowed to attach overnight before treating with Pyr or Vcr. One plate was used for LIVE/DEAD staining and the other plate was used for AlamarBlue assay as described below. Complete NP cell media (Sciencell, 4801) containing basal media supplemented with 1% penicillin-streptomycin, 1% growth supplement and 2% FBS were used for maintaining cells in culture. To mimic the hypoxic disc environment, NP cells were cultured in a hypoxia chamber (Stem Cell Technologies, 27310) with 5% CO2, 3.5% O2, 91.5% N2 (Airgas) during the entire culture and treatment incubation period.
(§2) Pyr stock solution was diluted in complete NP media to achieve final concentrations of 500 μM, 1 mM and 2 mM Pyr. 16.9 μg/mL and 169 μg/mL Vcr stock solutions were prepared in 1X PBS then diluted in complete NP media to achieve final concentrations of 10, 25, 50, 100 nM and 200, 500 nM, respectively. Cells were incubated with 250 μL of final treatment solutions in duplicate wells per donor for three days. Cells in negative control group were incubated with 250 μL of complete NP media with 0.55% v/v 1X PBS as solvent control. On day 3 post-treatment, brightfield images at 4X magnification were taken using a BioTek Cytation1 Plate Imager (Agilent) to verify cell proliferation and observe cell morphology. Three experimental replicates were performed for each cell donor.
(§3) On day 3 of incubation with drug, media treatment solutions were removed from each well and cells were carefully rinsed with 200 μL of sterile 1X PBS to remove excess media. NP cells were stained with 150 μL of 2 μM Calcein AM and 6 μM EtHD-1 solution from LIVE/DEAD Viability/Cytotoxicity Kit (Thermo Fisher Scientific, L3224) for 30 minutes at room temperature protected from light. After staining, cells were gently rinsed with 200 μL sterile 1X PBS to remove excess staining solution. Excitation and emission wavelengths for live cell fluorescence is 495 and 515 nm and dead cell fluorescence is 495 and 635 nm. Using a BioTek Cytation1 Plate Imager (Agilent), GFP filter cube (Agilent, 1225101, ex: 451.5–486.5 nm, em: 505.5–544.5 nm) and RFP filter cubes (Agilent, 1225103, ex: 511-551nm, em: 573–613 nm), fluorescent images at 4X magnification of four regions per well were taken. Gen5 v3.11 software (Agilent) was used to count green (live) and orange (dead) cells in fluorescent images. Dead NP cell staining was verified and evident by positive EtHD-1 orange staining in kill control wells where cells were treated with 70% EtOH for 10 minutes (S4 Fig). Percentage of live cells were calculated by calculating the percentage of live cells over total cell counts as shown in Eq 3.
(§4) Cellviability(%)=Livecellcounts/Livecellcounts+Deadcellcounts×100% (3)

Human NP cells [2] = assay: as above; format: cell-based
Experimental: as §1, §2, §3, §4

Human NP cells [3] = assay: NP cell metabolic activity (AlamarBlue reduction); format: cell-based;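 on AB reduction per cell (%): percent AlamarBlue reduction per manufacturer divided by estimated total cells per well from LIVE/DEAD counts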
Experimental: as §1, §2
On day 3 of incubation with drugs, 25 μL (10% v/v of media volume) of AlamarBlue HS cell viability reagent (Thermo Fisher Scientific, A50100) were added into each well. Cells were incubated with the AlamarBlue reagent for 2 hours at 37°C under hypoxia then 60 μL aliquots of cell media were removed in duplicates into a 96-well plate. The absorbance at 570 and 600 nm were read using a microplate reader (Agilent) and calculations for AlamarBlue reduction were calculated according to the manufacturer’s protocol. To account for different cell confluency between donors and groups, AlamarBlue reduction was normalized to estimated total number of cells per well obtained from LIVE/DEAD staining. Cellular metabolic activity in treated groups was reported as a ratio of normalized AlamarBlue reduction to PBS control group.

[4] = 10 nM, donor 1, day 3, single wells (Exp, Rep)
[5] = 25 nM, donor 1, day 3, single wells (Exp, Rep)
[6] = 25 nM, donor 2, day 3, single wells (Exp, Rep)
[7] = 50 nM, donor 1, day 3, single wells (Exp, Rep)
[8] = 50 nM, donor 2, day 3, single wells (Exp, Rep)
[9] = 100 nM, donor 1, day 3, single wells (Exp, Rep)
[10] = 100 nM, donor 2, day 3, single wells (Exp, Rep)
[11] = 200 nM, donor 1, day 3, single wells (Exp, Rep)
[12] = 200 nM, donor 2, day 3, single wells (Exp, Rep)
[13] = 500 nM, donor 1, day 3, single wells (Exp, Rep)

With CC[C@]1(O)C[C@H]2CN(CCc3c([nH]c4ccccc34)[C@@](C(=O)OC)(c3cc4c(cc3OC)N(C=O)[C@H]3[C@@](O)(C(=O)OC)[C@H](OC(C)=O)[C@]5(CC)C=CCN6CC[C@]43[C@@H]65)C2)C1 [Vcr, vincristine sulfate] the viability at 3 days [1] was over 81%, the “Percent live (%)” value (Human NP cells [2]; [4]) was 90.3134% and 98.5594% and 99.6198% and 83.3102% and 99.7603% and 99.2074% and the “Percent live (%)” value (Human NP cells [2]; [5]) was 89.2996% and 89.1566% and 99.4877% and 99.866% and 98.4016% and 98.5294%. The “Percent live (%)” value (Human NP cells [2]; [6]) was 97.6127% and 96.3918% and 89.1374% and 87.5648% and 97.9899% and 92.8571%, the “Percent live (%)” value (Human NP cells [2]; [7]) was 99.536% and 94.3223% and 95.1923% and 99.2108% and 99.6933% and 99.3363% and the “Percent live (%)” value (Human NP cells [2]; [8]) was 98.5163% and 97.4555% and 94.0054% and 88.1057% and 96.8127% and 94.0758%. For the same compound, the “Percent live (%)” value (Human NP cells [2]; [9]) was 98.9571% and 99.7976% and 95.6589% and 96.3247% and 98.866% and 99.2797%, the “Percent live (%)” value (Human NP cells [2]; [10]) was 99.5495% and 99.5885% and 95.3125% and 93.5614% and 98.018% and 96.1078% and the “Percent live (%)” value (Human NP cells [2]; [11]) was 96.7883% and 99.5461% and 93.2203% and 99.7674% and 98.7402% and 97.893%. The “Percent live (%)” value (Human NP cells [2]; [12]) was 98.9101% and 97.7221% and 91.7808% and 91.6988% and 97.8182% and 96.8701%, the “Percent live (%)” value (Human NP cells [2]; [13]) was 99.2% and 97.9245% and 96.5986% and 97.28% and 92.5651% and 91.0506% and the “AB reduction per cell (%)” value (Human NP cells [3]; [4]) was 0.002283% and 0.00154% and 0.001747% and 0.002442% and 0.00231% and 0.002706%. For the same compound, the “AB reduction per cell (%)” value (Human NP cells [3]; 10 nM, donor 2, day 3, single wells (Exp, Rep)) was 0.001215% and 0.001339% and 0.005412% and 0.01334% and 0.005031% and 0.005908%, the “AB reduction per cell (%)” value (Human NP cells [3]; [5]) was 0.001389% and 0.003739% and 0.002704% and 0.002205% and 0.001365% and 0.001406% and the “AB reduction per cell (%)” value (Human NP cells [3]; [6]) was 0.003051% and 0.007629% and 0.005557% and 0.004909% and 0.001181% and 0.0009857%. The “AB reduction per cell (%)” value (Human NP cells [3]; [7]) was 0.001753% and 0.001156% and 0.00138% and 0.00139% and 0.003609% and 0.003175%, the “AB reduction per cell (%)” value (Human NP cells [3]; [8]) was 0.0005415% and 0.0008201% and 0.002435% and 0.002975% and 0.005792% and 0.00531% and the “AB reduction per cell (%)” value (Human NP cells [3]; [9]) was 0.001416% and 0.0009649% and 0.001537% and 0.002073% and 0.00337% and 0.003265%. For the same compound, the “AB reduction per cell (%)” value (Human NP cells [3]; [10]) was 0.0006846% and 0.0007833% and 0.00204% and 0.002057% and 0.009145% and 0.008838%, the “AB reduction per cell (%)” value (Human NP cells [3]; [11]) was 0.001363% and 0.0008921% and 0.002395% and 0.003983% and 0.00365% and 0.004535% and the “AB reduction per cell (%)” value (Human NP cells [3]; [12]) was 0.0005853% and 0.0004556% and 0.002302% and 0.00249% and 0.005313% and 0.004842%. For the same compound, the “AB reduction per cell (%)” value (Human NP cells [3]; [13]) was 0.001679% and 0.00128% and 0.002381% and 0.004274% and 0.005712% and 0.005618%, the “AB reduction per cell (%)” value (Human NP cells [3]; 500 nM, donor 2, day 3, single wells (Exp, Rep)) was 0.0008561% and 0.0008471% and 0.004331% and 0.0268% and 0.00643% and 0.009026% and the “Cellular metabolic activity compared to PBS control” value (Human NP cells [3]; 10 to 500 nM, donor 1 and 2, day 3) was “No significant differences were detected”.
